# Reference: US5010204A, “Acetazolamide-related compounds, process for their preparation, and pharmaceutical composition containing the same” (Instituto Chimico Internazionale Dr. Giuseppe Rende S.r.l., priority 1988, dated 1991)
# pIC50: −log10 of the molar value.
# Assays:
# [1] = stability of the product (hydrolysis), observed on preparation; format: physicochemical; conditions: residue after reaction with liquid ammonia
# [2] = test system: ocular pressure in rabbit; test: decrease in ocular pressure in rabbit, transient ocular hypertension model (5% glucose infusion), topical instillation; format: in vivo; design: endoocular pressure, 10' OS / endoocular pressure, 20' OC / endoocular pressure, 40' OS: unit not given beside the values; conditions: for endoocular pressure, 10' OS / endoocular pressure, 20' OS / endoocular pressure, 40' OS: left eye (diluent-treated fellow eye, control); for endoocular pressure, 10' OS / endoocular pressure, 10' OD: 10 minutes; for endoocular pressure, 20' OS / endoocular pressure, 20' OC: 20 minutes; for endoocular pressure, 40' OS / endoocular pressure, 40' OD: 40 minutes; for endoocular pressure, 10' OD / endoocular pressure, 20' OC / endoocular pressure, 40' OD: right eye (drug-treated, 2 drops of 2% solution)
# Experimental: In vivo experiments were carried out on the compounds of the present invention, and, amongst the others, those experiments whose results are reported in the following Table 2, concerning the decrease in the ocular pressure in rabbit.
# For determining such results a transient ocular hypertension model was employed, said hypertension being obtained in rabbit through rapid venous infusion of suitable volumes (20 ml/kg) of 5% glucose solution.
# Albino rabbits from the same farm in New Zealand were employed, whose weights were between 2,500 e 3,000 g. Each treatment was carried out on a group of six animals.
# The drug was prepared in a phosphate buffer water solution at pH 7.5. The solution was made isotonic with sodium chloride and the possibility of microbial contamination was prevented through the addition of benzalkonium chloride. In case of compounds of low solubility, a dispersing suspension of the finely divided compound in methyl cellulose was prepared. The solution (or the suspension) was instilled into the right eye of each animal in the amount of 2 drops of 2% solution, at an interval of 2 minutes from one another. The left eye was treated with an equal volume of diluent.
# The measurements of pressure were performed while animals were in superficial local anaesthesia (0.4% benoxinate), by means of a McKay-Marg electronic pressure gage, at the times -30', 0', 10', 20', 40'.
# The following table reports the endoocular pressure measured after 10, 20, and 40 minutes both in the right and in the left eye: the higher the difference in the ocular pressure between the treated eye and the untreated eye, the higher the efficiency of the drug considered.
# carbonic anhydrase = test: in vitro inhibition of carbonic anhydrase (enzymic activity), CO2-electrode potentiometric analysis; format: biochemical; conditions: samples at 10^-7, 3×10^-7, 6×10^-7 and 10^-6 molar; read-out: I50 (molar concentration that gives a 50% reduction of enzymic activity)
# From the text: For determining the in vitro activities, samples were employed at molar concentrations of 10^-7, 3×10^-7, 6×10^-7, and 10^-6, and the results given in Table 1 were obtained by CO2 -electrode potentiometric analysis.
# [3] = solubility in buffer pH 7.6; format: physicochemical; conditions: aqueous buffer
# [4] = in words; cited from earlier work
# [5] = in words; cited from earlier work; remark: listed apart in the source
SMILES,stability [1],"endoocular pressure, 10' OS [2]","endoocular pressure, 20' OS [2]","endoocular pressure, 40' OS [2]","endoocular pressure, 10' OD [2]","endoocular pressure, 20' OC [2]","endoocular pressure, 40' OD [2]",pIC50 (carbonic anhydrase),solubility [3],water solubility [4],absorption when instilled in the eye [5]
"NS(=O)(=O)c1nnc(NC(=O)CCC(=O)OCC(F)(F)F)s1 [Rende 039, 5-Trifluoroethylsuccinoylamino-2-sulfonamido-1,3,4-thiadiazole]",very unstable and becomes very easily hydrolysed,,,,,,,,,,
"COC(=O)CCC(=O)Nc1nnc(S(N)(=O)=O)s1 [RENDE 023, 5-methylsuccinoylamino-2-sulfonamido-1,3,4-thiadiazole]",,25.5,20.17,16.67,25.33,19.5,16.5,6.26,740 µg/mL,,
"COC(=O)CCC(=O)N=c1sc(S(N)(=O)=O)nn1C [RENDE 024, 5-Methylsuccinoylamino-4-methyl-2-sulfonamido-1,3,4-thiadiazole]",,25.83,21.5,17.83,24.67,20.33,17.33,6.35,2250 µg/mL,,
"CC(C)COC(=O)CCC(=O)Nc1nnc(S(N)(=O)=O)s1 [RENDE 034, 5-Isobutylsuccinoylamino-2-sulfonamido-1,3,4-thiadiazole]",,25.67,21.17,17.17,21.5,19.0,16.67,6.43,1240 µg/mL,,
"CC(=O)Nc1nnc(S(N)(=O)=O)s1 [ACETAZOLAMIDE, 5-acetamido-2-sulfonamido-1,3,4-thiadiazole]",,,,,,,,,,practically insoluble,poor absorption
"CCCCCOC(=O)CCC(=O)N=c1sc(S(N)(=O)=O)nn1C [RENDE 035, 5-Pentylsuccinoylamino-4-methyl-2-sulfonamido-1,3,4-thiadiazole]",,25.17,22.0,18.0,24,20.67,17.83,6.51,535 µg/mL,,
"CCOC(=O)CCC(=O)Nc1nnc(S(N)(=O)=O)s1 [RENDE 029, 5-Ethylsuccinoylamino-2-sulfonamido-1,3,4-thiadiazole]",,25.67,20.67,17.67,20.33,17.33,15.67,,2760 µg/mL,,
"NS(=O)(=O)c1nnc(NC(=O)CCC(=O)O)s1 [RENDE 037, 5-succinoylamino-2-sulfonamido-1,3,4-thiadiazolic acid]",,26.0,21.67,19.0,19.33,17.17,15.67,,28700 µg/mL,,
"CCCCCOC(=O)CCC(=O)Nc1nnc(S(N)(=O)=O)s1 [RENDE 032, 5-Pentylsuccinoylamino-2-sulfonamido-1,3,4-thiadiazole]",,24.5,21.33,18.83,22.67,20.0,17.83,6.41,470 µg/mL,,
"NCCCCC(=O)Nc1nnc(S(N)(=O)=O)s1 [RENDE 027, 5-(5-Aminovaleroylamino)-2-sulfonamido-1,3,4-thiadiazole]",,26.17,21.5,17.33,24.0,20.83,16.83,6.36,208 µg/mL,,
